ChEMBL document CHEMBL4017479, “Design, synthesis and anticancer activity of novel nopinone-based thiosemicarbazone derivatives” (Bioorg Med Chem Lett, 2017)

Tests used:
SMMC-7721 = assay: Cytotoxicity against human SMMC7721 cells after 72 hrs by MTT assay; type: functional, cell-based; details: SMMC-7721, 72 h
MDA-MB-231 = assay: cells; details: Homo sapiens, MDA-MB-231, 72 h
Description: Cytotoxicity against human MDA-MB-231 cells after 72 hrs by MTT assay

HeLa = assay: cells; details: Homo sapiens, 72 h
Description: Cytotoxicity against human HeLa cells after 72 hrs by MTT assay

[1] = Cytotoxicity against HLF1 cells after 72 hrs by MTT assay; type: functional, cell-based; details: Homo sapiens, HLF1, 72 h

For `COc1cc([C@@H]2c3cc4c(cc3[C@@H](O[C@@H]3O[C@@H]5CO[C@@H](C)O[C@H]5[C@H](O)[C@H]3O)[C@H]3COC(=O)[C@H]23)OCO4)cc(OC)c1O` [ETOPOSIDE], the IC50 (SMMC-7721) was 40.4 µM, the IC50 (MDA-MB-231) was 29.3 µM and the IC50 (HeLa) was 7.89 µM. The IC50 [1] was over 40 µM.
